# According to patent publication US12624044B2, “SMARCA degraders and uses thereof” (Kymera Therapeutics, Inc., priority 2019, dated 2026):
# Target: SMARCA2 (Homo sapiens, UniProt P51531)
# Test: MSD SMARCA2 degradation in A549 cell line
# Assay type: cell-based
# Conditions: 24 h; for Dmax: A549, A549 cells; for DC50: A549 cells, read-out: SMARCA2 MSD A549 degradation 24 h: Average external-Abs DC50
# Method: Cells were seeded into 96-well plates (A549 cells: 2×10^4 cells/well/100 ul media) abd incubated overnight. The next day, 200 nl compound were added into the intermediate plate with Echo (Labcyte 550) from source plate containing a 3-fold serial dilution from top concentration of 1 mM. The culture medium was changed with 80 ul of fresh medium and 80 ul of 2× compound solution was added into the well to make a final concentration of 1000 nM, 333.3 nM, 111.1 nM, 37.04 nM, 12.35 nM, 4.115 nM, 1.372 nM, 0.457 nM, 0.152 nM and 0 nM (DMSO). The wells were mixed and then incubated for 24 hours. The media was aspirated from the cultures and 60 ul pre-chilled PIPA lysis buffer (Boston BioProducts BP-115D) with protease/phosphatase inhibitor (Roche 05892791001/Roche 04906837001) was added into the well to lyze the cells for 20 minutes at 4° C. The MSD plate (L15XA) was coated with 40 ul cell lysate and incubated at 4° C. overnight. The next day, the plate was washed three times with TBST (CST #9997S), 150 ul/well. The MSD plates was blocked with 150 ul blocking buffer per well and shaked for 1 hr at RT, 600 rpm. The blocking buffer was 3% Blocker A (MSD, R93BA-4) in TBST. The MSD plate was washed three times with 150 ul/well of TBST and 25 ul/well of detection antibody (Rabbit anti-SMARCA2/BRM antibody, 100 μg/ml, ab223735) was added at final concentration of 1 ug/ml diluted in 1% Blocking buffer and shaken for 1 hour at RT, 600 rpm. The MSD plate was washed three times with 150 ul/well of TBST and 25 ul/well of SULFO-TAG anti-rabbit antibody (MSD, R32AB-1) was added at final concentration of 1 ug/ml diluted in 1% Blocking buffer and shaken for 1 hour at RT, 600 rpm. The MSD plate was washed three times with 150 ul/well of TBST and 150 ul/well of 2×MSD reading buffer diluted from 4× (MSD, R92TC-2) with water was added. Lastly, the MSD instrument was read.
# The letter codes for the percentage of SMARCA2 degradation after 24 hours (Dmax %) include: A (>90% degradation), B (>70-90% degradation), C (50-70% degradation), and D (<50% degradation).
# Sequence of SMARCA2 (P51531 whole entry): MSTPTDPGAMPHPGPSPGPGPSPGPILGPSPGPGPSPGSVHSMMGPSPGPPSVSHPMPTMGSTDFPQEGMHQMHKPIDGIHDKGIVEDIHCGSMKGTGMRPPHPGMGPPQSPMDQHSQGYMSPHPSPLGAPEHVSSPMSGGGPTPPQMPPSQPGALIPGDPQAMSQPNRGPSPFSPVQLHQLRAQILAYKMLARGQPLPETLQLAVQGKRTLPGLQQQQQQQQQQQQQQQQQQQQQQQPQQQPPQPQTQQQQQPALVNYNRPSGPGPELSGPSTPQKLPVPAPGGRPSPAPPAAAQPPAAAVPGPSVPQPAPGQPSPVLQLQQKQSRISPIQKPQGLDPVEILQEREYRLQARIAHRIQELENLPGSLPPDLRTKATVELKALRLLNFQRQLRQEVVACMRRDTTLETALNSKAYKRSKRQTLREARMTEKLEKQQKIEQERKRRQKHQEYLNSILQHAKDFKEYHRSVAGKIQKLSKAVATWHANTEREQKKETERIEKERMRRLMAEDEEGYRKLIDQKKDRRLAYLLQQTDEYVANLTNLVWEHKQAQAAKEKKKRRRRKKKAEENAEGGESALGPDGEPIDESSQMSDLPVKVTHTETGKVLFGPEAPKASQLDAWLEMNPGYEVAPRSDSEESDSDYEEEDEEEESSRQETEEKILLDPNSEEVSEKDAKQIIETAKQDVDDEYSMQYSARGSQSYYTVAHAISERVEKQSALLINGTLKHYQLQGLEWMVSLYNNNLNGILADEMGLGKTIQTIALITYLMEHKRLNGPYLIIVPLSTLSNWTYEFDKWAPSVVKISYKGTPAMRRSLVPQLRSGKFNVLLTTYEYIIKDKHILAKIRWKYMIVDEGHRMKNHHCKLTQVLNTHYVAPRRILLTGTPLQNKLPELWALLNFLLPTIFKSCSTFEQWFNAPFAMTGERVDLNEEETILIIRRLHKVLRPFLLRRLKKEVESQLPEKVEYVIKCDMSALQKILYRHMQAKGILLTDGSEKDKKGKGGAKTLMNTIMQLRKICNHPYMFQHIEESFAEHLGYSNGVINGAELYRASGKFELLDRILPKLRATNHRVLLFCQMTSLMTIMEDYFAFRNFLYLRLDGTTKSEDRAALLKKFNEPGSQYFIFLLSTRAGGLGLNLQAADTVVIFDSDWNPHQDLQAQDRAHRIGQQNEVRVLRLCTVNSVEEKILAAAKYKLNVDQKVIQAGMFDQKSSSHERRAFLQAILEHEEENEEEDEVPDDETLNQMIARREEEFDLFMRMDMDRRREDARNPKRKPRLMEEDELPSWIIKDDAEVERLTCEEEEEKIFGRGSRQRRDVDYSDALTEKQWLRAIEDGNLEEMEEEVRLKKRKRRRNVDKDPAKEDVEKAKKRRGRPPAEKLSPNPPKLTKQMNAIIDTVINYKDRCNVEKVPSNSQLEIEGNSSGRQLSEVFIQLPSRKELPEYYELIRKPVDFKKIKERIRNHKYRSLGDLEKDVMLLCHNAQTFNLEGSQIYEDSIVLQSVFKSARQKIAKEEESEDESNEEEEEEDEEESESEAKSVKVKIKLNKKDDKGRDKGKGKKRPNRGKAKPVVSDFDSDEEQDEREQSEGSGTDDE
DC50,Compound,Dmax
> 1000 nM,"Cn1c(=O)n(C2CCC(=O)NC2=O)c2ccc(CCCCCCCCCNCc3cccc(C#Cc4cc(NC(=O)Nc5cc(F)ncc5CO)ccn4)c3)cc21 (stereo not shown) [I-302, 1-(2-((3-(((9-(1-(2,6-dioxopiperidin-3-yl)-3-methyl-2-oxo-2,3-dihydro-1H-benzo[d]imidazol-5-yl)nonyl)amino)methyl)phenyl)ethynyl)pyridin-4-yl)-3-(2-fluoro-5-(hydroxymethyl)pyridin-4-yl)urea]",< 50%
100 to 500 nM,Cc1ncsc1-c1ccc(CNC(=O)[C@@H]2C[C@@H](O)CN2C(=O)[C@@H](NC(=O)[C@H]2CC[C@H](c3ccc(CN4CCC(Cn5cc(-c6cc(-c7ccccc7O)nnc6N)cn5)CC4)cc3)CC2)C(C)(C)C)cc1 [I-380],> 90%
> 1000 nM,Cc1ncsc1-c1ccc(CNC(=O)[C@@H]2C[C@@H](O)CN2C(=O)[C@@H](NC(=O)CCCN2CCC(c3ccc(C#Cc4cc(NC(=O)Nc5cc(F)ncc5CO)ccn4)cc3)CC2)C(C)(C)C)cc1 [I-501],< 50%
> 1000 nM,CN(Cc1cccc(C#Cc2cc(NC(=O)Nc3cc(F)ncc3CO)ccn2)c1)C1CCN(C(=O)c2cccc3c2n(C)c(=O)n3C2CCC(=O)NC2=O)CC1 (stereo not shown) [I-320],< 50%
> 1000 nM,"CC(C)(C)[C@H](NC(=O)[C@H]1CC2(C1)C[C@H](N1CCC(c3cnc(N4C5CCC4CN(c4cc(-c6ccccc6O)nnc4N)C5)nc3)CC1)C2)C(=O)N1C[C@H](O)C[C@H]1C(=O)NOc1ccc(-c2ccccc2F)cc1 (stereo partly drawn) [I-538, (2S,4R)-1-[(2S)-2-[[2-[4-[2-[3-[3-amino-6-(2-hydroxyphenyl)pyridazin-4-yl]-3,8-diazabicyclo[3.2.1]octan-8-yl]pyrimidin-5-yl]-1-piperidyl]spiro[3.3]heptane-6-carbonyl]amino]-3,3-dimethyl-butanoyl]-N-[4-(2-fluorophenyl)phenoxy]-4-hydroxy-pyrrolidine-2-carboxamide]",
> 1000 nM,Cc1ncsc1-c1ccc(CNC(=O)[C@@H]2C[C@@H](O)CN2C(=O)[C@@H](NC(=O)CCN(C)Cc2ccc(N3CCN(c4cc(-c5ccccc5O)nnc4N)CC3)cc2)C(C)(C)C)cc1 [I-463],< 50%
> 1000 nM,Cc1ncsc1-c1ccc(CNC(=O)[C@@H]2C[C@@H](O)CN2C(=O)[C@@H](NC(=O)CN2CCC(c3cccc(C#Cc4cc(NC(=O)Nc5cc(F)ncc5CO)ccn4)c3)CC2)C(C)(C)C)cc1 [I-498],< 50%

Compound,DC50,Dmax
Cc1ncsc1-c1ccc(CNC(=O)[C@@H]2C[C@@H](O)CN2C(=O)[C@@H](NC(=O)[C@H]2CC[C@@H](N3CC(c4cnc(N5C6CCC5CN(c5cc(-c7ccccc7O)nnc5N)C6)nc4)C3)CC2)C(C)(C)C)cc1 [I-436],100 to 500 nM,> 90%
Cc1ncsc1-c1ccc(CNC(=O)[C@@H]2C[C@@H](O)CN2C(=O)C(NC(=O)C2(F)CC2)C2CCC(N(C)CCCCCc3cnc(N4C5CCC4CN(c4cc(-c6ccccc6O)nnc4N)C5)nc3)CC2)cc1 (stereo partly shown) [I-519],> 1000 nM,< 50%
Cc1ncsc1-c1ccc(CNC(=O)[C@@H]2C[C@@H](O)CN2C(=O)[C@@H](NC(=O)[C@H]2CC3(C[C@H](CN(C)Cc4cnc(N5C6CCC5CN(c5cc(-c7ccccc7O)nnc5N)C6)nc4)C3)C2)C(C)(C)C)cc1 (stereo partly shown) [I-417],100 to 500 nM,> 90%
Nc1nnc(-c2ccccc2O)cc1N1CC2CCC(C1)N2c1ncc(C2CCN(CCCCNC(=O)COc3ccc4c(c3)CCCN4C(=O)CCl)CC2)cn1 [I-528],> 1000 nM,< 50%
Cc1ncsc1-c1ccc(CNC(=O)[C@@H]2C[C@@H](O)CN2C(=O)[C@@H](NC(=O)[C@@H]2CC3CCC2C[C@@H]3c2cnc(N3C4CCC3CN(c3cc(-c5ccccc5O)nnc3N)C4)nc2)C(C)(C)C)cc1 (stereo partly shown) [I-410],100 to 500 nM,> 90%
Nc1nnc(-c2ccccc2O)cc1N1CC2CCC(C1)N2c1ncc(C2CCN(CCCCCCNC(=O)COc3ccc4c(c3)CCCN4C(=O)CCl)CC2)cn1 [I-529],> 1000 nM,< 50%
